The source of these data is ChEMBL document CHEMBL1201862, “PubChem BioAssay data set” (2004).

Among the targets are Cytochrome P450 2D6 (Homo sapiens, UniProt P10635); Cytochrome P450 2C9 (Homo sapiens, UniProt P11712); Cytochrome P450 3A4 (Homo sapiens, UniProt P08684).
The next series deals with T1, Protein skinhead-1 (Caenorhabditis elegans, UniProt P34707).
T1 sequence (P34707 whole entry): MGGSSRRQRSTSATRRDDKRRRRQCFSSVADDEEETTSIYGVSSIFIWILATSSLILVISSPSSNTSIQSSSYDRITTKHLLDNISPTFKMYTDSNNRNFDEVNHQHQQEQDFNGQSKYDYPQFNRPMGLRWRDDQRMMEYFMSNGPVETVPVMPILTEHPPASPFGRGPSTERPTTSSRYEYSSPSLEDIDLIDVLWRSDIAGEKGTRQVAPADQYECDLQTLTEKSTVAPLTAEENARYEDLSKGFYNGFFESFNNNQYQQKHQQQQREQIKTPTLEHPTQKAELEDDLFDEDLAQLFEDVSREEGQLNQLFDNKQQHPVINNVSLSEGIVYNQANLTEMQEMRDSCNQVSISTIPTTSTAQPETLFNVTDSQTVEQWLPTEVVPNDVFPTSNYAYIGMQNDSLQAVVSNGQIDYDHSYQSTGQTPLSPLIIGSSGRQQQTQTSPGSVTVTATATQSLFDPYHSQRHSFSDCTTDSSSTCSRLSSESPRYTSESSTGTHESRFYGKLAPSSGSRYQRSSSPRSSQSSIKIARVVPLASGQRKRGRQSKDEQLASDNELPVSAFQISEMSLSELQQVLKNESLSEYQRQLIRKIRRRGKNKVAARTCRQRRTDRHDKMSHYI
In kind it is functional.

The target in a further series is T2, Cytochrome P450 1A2 (Homo sapiens, UniProt P05177).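 Further: PubChem cytochrome P450 panel assay, CYP1A2 panel member.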
T2 sequence (P05177 whole entry): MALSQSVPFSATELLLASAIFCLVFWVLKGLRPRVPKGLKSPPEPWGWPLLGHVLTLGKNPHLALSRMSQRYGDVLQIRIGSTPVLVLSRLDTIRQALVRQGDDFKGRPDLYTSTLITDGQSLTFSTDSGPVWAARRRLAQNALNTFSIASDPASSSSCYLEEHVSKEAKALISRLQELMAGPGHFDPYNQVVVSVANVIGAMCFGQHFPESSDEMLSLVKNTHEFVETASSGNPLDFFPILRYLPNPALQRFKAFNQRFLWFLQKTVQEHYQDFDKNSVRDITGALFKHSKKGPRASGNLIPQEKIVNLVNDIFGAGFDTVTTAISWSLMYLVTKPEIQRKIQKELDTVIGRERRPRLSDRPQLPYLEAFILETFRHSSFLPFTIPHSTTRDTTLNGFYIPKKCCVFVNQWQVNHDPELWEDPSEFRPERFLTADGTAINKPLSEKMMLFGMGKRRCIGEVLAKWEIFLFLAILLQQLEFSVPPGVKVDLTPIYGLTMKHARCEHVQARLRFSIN

The target in series [1] is T3, Short transient receptor potential channel 4 (Mus musculus, UniProt Q9QUQ5).
T3 sequence (Q9QUQ5 whole entry): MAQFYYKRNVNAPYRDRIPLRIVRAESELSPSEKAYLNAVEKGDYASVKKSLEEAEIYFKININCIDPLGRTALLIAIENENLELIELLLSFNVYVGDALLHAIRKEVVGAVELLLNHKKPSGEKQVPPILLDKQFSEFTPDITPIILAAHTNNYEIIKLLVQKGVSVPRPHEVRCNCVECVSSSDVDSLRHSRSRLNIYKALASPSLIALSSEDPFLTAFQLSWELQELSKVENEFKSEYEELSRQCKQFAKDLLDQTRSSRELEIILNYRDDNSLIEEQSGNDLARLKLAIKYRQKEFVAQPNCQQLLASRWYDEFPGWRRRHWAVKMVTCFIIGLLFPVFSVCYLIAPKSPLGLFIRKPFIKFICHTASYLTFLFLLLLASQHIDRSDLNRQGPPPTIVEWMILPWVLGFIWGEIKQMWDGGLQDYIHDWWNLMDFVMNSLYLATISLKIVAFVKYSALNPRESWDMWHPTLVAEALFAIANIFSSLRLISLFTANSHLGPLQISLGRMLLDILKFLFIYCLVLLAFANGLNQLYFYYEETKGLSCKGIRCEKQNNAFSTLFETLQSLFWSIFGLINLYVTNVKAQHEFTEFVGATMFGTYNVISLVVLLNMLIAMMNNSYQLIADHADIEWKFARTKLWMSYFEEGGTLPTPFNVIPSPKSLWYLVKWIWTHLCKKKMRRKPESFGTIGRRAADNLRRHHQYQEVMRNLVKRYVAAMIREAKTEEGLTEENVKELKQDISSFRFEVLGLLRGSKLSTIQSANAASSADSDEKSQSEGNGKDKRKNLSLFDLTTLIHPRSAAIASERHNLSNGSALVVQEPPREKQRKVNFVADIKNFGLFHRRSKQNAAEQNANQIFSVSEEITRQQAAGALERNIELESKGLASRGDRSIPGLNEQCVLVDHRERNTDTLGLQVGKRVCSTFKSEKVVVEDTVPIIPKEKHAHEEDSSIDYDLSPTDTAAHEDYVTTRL
As to the kind of experiment: mouse TRPC4 channel activators, dose response, cell-based, HEK293 TRPC4/mu-opioid, Fluo-4 calcium (AID 434937). In kind it is functional.

Series [2] concerns the target T4, Rac GTPase-activating protein 1 (Homo sapiens, UniProt Q9H0H5).
T4 sequence (Q9H0H5 whole entry): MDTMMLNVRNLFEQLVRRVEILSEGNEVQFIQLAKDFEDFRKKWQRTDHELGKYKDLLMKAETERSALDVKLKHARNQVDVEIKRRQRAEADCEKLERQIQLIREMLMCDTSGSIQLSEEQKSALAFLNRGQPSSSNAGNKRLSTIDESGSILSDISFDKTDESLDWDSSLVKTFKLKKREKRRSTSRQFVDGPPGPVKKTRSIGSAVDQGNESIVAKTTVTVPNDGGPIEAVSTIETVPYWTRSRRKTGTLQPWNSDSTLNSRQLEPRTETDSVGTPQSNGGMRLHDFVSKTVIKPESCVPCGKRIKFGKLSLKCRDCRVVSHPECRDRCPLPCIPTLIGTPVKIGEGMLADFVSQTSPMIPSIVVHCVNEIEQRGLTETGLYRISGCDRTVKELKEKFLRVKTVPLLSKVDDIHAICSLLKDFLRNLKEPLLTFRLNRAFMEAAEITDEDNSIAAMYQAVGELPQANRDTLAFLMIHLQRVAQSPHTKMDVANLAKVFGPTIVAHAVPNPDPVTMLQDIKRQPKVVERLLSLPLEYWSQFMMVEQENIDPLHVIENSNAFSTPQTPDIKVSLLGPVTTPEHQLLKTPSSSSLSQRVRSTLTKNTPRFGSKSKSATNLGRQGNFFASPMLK
The experiment in a line: MgcRacGAP GTPase-activating activity inhibitors, confirmation, biochemical, ADP Hunter fluorescence, primary and confirmatory (AID 624330). In kind it is functional.

A further series concerns BJ. As to the kind of experiment: cells. In kind it is functional, cell-based, Homo sapiens. As to conditions: bj.
Series [3] concerns the target T5, Fatty acid synthase (Homo sapiens, UniProt P49327). The experiment in a line: FAS thioesterase domain inhibitors, dose response, biochemical, kinetic fluorescence intensity (AID 624326).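 Further: rate of fluorescence rise from hydrolysis of a fluorogenic O-methyl fluorescein ester substrate.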 In kind it is functional.
Series [4] addresses T5, Fatty acid synthase. As to the kind of experiment: FAS thioesterase domain inhibitors, dose response, biochemical, endpoint fluorescence intensity, uHTS hits (AID 624327).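 Further: fluorescence from hydrolysis of an O-methyl fluorescein acyl ester substrate by the enzyme.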 In kind it is functional.
In another series the target is Genome polyprotein (dengue virus type 2, UniProt P29990). The experiment in a line: Dengue-2 NS5 methyltransferase inhibitors, primary screen, biochemical, confirmation dose response (AID 588689). In kind it is functional.
A further series addresses Cytochrome P450 2C19 (Homo sapiens, UniProt P33261). The experiment in a line: Cytochrome panel assay with activity outcomes. Panel member name: p450-cyp2c19 Compounds with AC50 equal or less than 10 uM are considered active. In kind it is functional. As to conditions: read-out: AC50.
The nature of series [5]: inhibitors of intracellular T. cruzi replication, confirmation, NIH3T3 host cells, beta-gal luminescence (AID 2044).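 Further: intracellular parasites grown in NIH/3T3 mouse fibroblasts as host cells; luminescent beta-galactosidase reporter signal from transgenic T. cruzi replicating inside host cells; inhibitors lower the luminescence signal.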 In kind it is functional, cell-based.
Series [6] is described as follows: cytotoxicity toward NIH3T3 fibroblasts, dose response, counter-screen, cell-based, ATP luminescence, mouse fibroblasts (AID 2010).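 Further: cells exposed to compound for about 90 hours before reading.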 In kind it is functional.

Each structure is given as a SMILES string. Calls of active or inactive are those of the source. Bounds are passed on as bounds.

Sequence of Cytochrome P450 2D6 (P10635 whole entry): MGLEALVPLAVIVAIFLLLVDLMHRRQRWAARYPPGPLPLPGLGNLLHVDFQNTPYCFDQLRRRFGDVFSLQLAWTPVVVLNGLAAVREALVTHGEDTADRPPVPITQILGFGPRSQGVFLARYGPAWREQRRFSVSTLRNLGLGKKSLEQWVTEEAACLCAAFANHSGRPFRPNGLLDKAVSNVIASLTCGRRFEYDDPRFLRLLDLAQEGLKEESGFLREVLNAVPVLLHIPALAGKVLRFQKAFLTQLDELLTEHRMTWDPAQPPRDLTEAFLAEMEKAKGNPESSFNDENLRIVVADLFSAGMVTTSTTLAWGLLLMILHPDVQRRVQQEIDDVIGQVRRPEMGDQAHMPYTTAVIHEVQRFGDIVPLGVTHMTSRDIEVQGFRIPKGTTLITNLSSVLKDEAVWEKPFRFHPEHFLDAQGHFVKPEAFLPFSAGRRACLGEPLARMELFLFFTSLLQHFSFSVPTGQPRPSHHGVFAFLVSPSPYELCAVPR
Sequence of Cytochrome P450 2C9 (P11712 whole entry): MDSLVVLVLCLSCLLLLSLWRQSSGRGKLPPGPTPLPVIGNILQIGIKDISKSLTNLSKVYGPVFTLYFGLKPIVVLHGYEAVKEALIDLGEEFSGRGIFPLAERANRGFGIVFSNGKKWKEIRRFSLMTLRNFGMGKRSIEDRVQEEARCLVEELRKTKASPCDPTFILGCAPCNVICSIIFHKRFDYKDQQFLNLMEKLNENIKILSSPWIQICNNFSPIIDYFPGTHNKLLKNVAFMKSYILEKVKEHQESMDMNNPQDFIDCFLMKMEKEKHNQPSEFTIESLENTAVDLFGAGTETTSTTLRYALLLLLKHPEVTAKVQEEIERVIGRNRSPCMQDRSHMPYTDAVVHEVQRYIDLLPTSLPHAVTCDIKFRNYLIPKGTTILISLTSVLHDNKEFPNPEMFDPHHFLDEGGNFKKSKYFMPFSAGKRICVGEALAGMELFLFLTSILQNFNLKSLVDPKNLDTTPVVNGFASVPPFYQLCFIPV
Sequence of Genome polyprotein (P29990 2492-3391 limits assumed): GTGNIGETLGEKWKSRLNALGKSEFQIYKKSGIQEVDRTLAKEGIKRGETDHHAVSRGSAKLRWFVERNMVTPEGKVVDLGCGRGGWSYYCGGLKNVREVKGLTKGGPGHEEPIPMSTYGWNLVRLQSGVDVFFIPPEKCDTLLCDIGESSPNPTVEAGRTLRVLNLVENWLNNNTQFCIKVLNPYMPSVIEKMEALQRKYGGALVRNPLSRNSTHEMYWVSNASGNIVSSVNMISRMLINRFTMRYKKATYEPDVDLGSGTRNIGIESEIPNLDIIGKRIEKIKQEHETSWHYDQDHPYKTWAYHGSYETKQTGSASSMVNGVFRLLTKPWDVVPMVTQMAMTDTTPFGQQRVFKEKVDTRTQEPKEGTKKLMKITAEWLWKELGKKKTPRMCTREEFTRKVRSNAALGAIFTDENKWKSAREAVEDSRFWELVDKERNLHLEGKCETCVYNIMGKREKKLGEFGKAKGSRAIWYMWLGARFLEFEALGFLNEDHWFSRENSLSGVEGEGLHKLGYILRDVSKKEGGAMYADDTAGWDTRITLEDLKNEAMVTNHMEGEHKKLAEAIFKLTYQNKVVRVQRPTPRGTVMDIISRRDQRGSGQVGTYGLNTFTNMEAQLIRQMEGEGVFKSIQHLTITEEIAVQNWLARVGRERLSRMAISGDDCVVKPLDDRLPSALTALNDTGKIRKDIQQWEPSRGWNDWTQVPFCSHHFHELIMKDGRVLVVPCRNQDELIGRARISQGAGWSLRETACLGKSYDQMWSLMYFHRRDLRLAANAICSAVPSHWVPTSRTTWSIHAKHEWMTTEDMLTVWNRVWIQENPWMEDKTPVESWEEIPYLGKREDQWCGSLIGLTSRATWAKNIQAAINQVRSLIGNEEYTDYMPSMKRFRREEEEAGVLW
T5 sequence (P49327 whole entry, the tested form may be a part): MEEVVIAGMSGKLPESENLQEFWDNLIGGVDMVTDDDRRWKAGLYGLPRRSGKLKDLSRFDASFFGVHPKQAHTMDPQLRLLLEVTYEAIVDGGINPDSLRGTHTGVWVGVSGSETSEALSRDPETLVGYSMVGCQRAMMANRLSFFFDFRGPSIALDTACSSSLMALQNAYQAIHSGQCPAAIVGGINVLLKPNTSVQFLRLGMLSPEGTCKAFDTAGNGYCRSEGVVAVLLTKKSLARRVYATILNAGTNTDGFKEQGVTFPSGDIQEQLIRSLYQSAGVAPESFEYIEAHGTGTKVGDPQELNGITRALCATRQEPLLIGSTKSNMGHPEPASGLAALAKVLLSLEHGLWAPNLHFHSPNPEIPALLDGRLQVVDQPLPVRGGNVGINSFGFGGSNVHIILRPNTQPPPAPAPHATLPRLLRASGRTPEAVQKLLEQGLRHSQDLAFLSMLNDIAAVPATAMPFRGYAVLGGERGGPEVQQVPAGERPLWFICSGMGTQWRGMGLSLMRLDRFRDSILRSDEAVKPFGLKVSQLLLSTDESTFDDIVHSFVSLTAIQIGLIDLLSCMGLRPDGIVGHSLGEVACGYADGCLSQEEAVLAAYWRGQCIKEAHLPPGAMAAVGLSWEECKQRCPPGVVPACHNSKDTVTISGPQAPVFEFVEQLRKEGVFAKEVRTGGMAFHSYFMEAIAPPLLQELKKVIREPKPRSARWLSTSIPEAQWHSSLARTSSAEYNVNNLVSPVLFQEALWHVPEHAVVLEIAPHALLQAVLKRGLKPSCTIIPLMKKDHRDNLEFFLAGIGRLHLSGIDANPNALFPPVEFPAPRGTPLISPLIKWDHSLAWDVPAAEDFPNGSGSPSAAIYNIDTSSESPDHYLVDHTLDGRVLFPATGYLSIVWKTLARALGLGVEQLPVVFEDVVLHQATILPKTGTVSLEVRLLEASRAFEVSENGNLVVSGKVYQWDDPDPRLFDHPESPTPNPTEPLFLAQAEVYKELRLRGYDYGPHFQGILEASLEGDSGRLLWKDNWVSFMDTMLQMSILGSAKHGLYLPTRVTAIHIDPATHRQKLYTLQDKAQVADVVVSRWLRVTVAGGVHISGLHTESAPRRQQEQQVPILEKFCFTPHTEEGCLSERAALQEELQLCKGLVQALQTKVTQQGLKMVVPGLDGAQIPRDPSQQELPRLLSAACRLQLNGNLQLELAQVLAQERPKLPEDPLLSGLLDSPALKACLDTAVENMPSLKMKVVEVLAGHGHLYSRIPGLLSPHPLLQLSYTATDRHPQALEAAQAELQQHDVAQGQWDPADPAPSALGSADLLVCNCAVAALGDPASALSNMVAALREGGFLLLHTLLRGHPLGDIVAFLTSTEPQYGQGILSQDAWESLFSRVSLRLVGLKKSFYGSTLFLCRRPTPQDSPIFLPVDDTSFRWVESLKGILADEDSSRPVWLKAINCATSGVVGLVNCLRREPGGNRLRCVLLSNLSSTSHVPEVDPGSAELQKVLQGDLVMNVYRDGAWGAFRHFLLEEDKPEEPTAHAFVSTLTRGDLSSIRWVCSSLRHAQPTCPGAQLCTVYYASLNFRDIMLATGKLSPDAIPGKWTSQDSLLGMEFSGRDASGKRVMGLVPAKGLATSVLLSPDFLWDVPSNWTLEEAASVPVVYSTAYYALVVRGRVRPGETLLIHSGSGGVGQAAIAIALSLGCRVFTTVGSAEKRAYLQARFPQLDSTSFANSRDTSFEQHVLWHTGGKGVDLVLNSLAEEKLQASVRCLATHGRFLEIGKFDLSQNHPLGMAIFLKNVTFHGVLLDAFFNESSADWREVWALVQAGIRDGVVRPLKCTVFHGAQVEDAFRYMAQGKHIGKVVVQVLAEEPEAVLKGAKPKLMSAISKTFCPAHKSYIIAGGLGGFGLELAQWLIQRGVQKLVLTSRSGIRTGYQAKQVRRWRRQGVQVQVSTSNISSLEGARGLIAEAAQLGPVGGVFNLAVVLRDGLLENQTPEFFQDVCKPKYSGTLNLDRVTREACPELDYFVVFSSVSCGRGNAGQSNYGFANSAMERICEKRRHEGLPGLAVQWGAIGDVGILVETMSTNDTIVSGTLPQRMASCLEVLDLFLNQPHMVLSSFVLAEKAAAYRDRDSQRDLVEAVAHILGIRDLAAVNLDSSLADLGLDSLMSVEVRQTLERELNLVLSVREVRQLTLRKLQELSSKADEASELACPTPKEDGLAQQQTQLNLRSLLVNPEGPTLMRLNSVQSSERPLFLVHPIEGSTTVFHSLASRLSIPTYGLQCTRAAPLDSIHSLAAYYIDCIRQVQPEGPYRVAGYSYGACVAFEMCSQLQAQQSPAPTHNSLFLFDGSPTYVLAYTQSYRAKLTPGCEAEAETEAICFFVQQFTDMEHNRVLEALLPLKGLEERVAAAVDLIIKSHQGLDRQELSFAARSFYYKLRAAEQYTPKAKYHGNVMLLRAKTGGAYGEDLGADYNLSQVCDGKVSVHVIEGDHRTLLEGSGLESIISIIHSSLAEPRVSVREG
Sequence of Cytochrome P450 3A4 (P08684 whole entry): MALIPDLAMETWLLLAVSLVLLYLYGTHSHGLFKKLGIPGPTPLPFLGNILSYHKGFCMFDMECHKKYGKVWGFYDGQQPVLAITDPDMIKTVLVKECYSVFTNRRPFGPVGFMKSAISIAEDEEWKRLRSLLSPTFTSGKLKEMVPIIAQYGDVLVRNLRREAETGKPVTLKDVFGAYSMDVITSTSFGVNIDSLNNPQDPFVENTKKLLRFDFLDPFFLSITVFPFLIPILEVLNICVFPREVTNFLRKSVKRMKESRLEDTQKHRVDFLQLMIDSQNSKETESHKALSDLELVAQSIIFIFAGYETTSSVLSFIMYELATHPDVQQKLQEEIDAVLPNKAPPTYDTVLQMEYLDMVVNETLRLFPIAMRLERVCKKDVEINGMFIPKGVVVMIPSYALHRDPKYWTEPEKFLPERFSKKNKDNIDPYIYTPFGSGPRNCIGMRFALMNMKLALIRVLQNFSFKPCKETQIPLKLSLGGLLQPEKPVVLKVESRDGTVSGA

As a reminder, the IC50 is the midpoint of a concentration-inhibition curve. Consider `Fc1ccc(CSc2nnc(-c3cccs3)o2)cc1`, for which the IC50 on Protein skinhead-1 was 27.3 µM (active).
On the same count and under the same terms, the same measure for `CCOC(=O)C(Oc1ccc2c(-c3ccc(OC)cc3)cc(=O)oc2c1C)c1ccccc1` (stereo not given): > 100 µM (inactive).
As usually defined, the AC50 is the midpoint of the concentration-response curve, whichever way the signal moves. Regarding `CCCSc1nc(C)cc(C)c1S(=O)(=O)c1ccccc1C`, the AC50 at Cytochrome P450 1A2 is 11.2 µM (inconclusive); at Cytochrome P450 2D6, 39.8 µM (inconclusive); on Cytochrome P450 2C9 it was “inconclusive”.
Broadly, the EC50 is the concentration at which the effect is half-maximal. For `c1ccc2sc(N3CCNCC3)nc2c1`, the EC50 in series [1] is 0.473 µM (active).
Regarding `Cc1ccc(-c2nc(-c3ccncc3)no2)cc1`, the IC50 at Protein skinhead-1 is 13.9 µM (active).
Turning to `COc1cc(/C=C/C(=O)OCC(=O)Nc2ccc3c(c2)OCO3)ccc1O`, the IC50 in [2] is 48.2 µM (active).
On to `COc1cccc(/C=N/n2c(=S)n(C)c3cc(C)c(C)cc32)c1OC`, for which the AC50 entry at Cytochrome P450 2C9 was “inconclusive”.
On to `COc1cc2c(c(OC)c1OC)-c1ccc(=O)c(O)cc1C(NC(C)=O)CC2` (stereo not given), for which, in the series with BJ, the EC50 was 0.126 µM (inconclusive).
For `Cc1ccc(S(=O)(=O)N2C[C@H]3[C@H]4C(=O)N(c5ccccc5)C(=O)[C@H]4CC(=O)[C@H]3[C@@H]2c2cccc3ccccc23)cc1`, the IC50 on Protein skinhead-1 was > 100 µM (inactive); at Fatty acid synthase [3], 15.6 µM (active); on Fatty acid synthase [4], 21.6 µM (inactive).
Consider `CSc1ccc(CN2CCC(C(=O)NCc3ccc(C)cc3)CC2)cc1`, for which the IC50 in [2] is 108 µM (active).
Same read-out and setting: the same measure for `Cc1ccccc1OCCn1c(S)nc2c(N)ncnc21`: 41.6 µM (active).
Take `O=C(CS(=O)(=O)c1cccc(Cl)c1)Nc1ccccc1Cl`: the values for the AC50 at Cytochrome P450 1A2, at Cytochrome P450 2D6 and at Cytochrome P450 2C9 were 22.4 µM (inconclusive), 17.8 µM (inconclusive) and “inconclusive”, respectively.
As to `Cc1nc(Cc2nnc(SCC(=O)N3CCN(c4ccc(O)cc4)CC3)o2)cs1`, the IC50 in series [2] was 30 µM (active).
Turning to `CC(=C\c1ccccc1)/C=C1/SC(=S)N(C(C(=O)O)C(C)C)C1=O` (stereo not given), the IC50 on Genome polyprotein was 34.1 µM (active).
For the compound `COc1ccc(N2CCN(C(=O)c3cc4c(-c5cccc(OC)c5)nn(C)c4s3)CC2)cc1`, on Protein skinhead-1, the IC50 is > 100 µM (inactive).
On to `COc1ccc(C(CNCC(O)COc2c(C)ccc(C)c2C)N(C)C)cc1` (stereo not given), for which the EC50 in [1] is 1.19 µM (active).
`Cc1cc(N(CCCl)CCCl)ccc1C=Cc1ccncn1`: the IC50 on Protein skinhead-1 was > 100 µM (inactive).
Same read-out and setting: the same measure for `COc1ccccc1-c1nnc(-c2ccc(F)cc2)o1`: 90.4 µM (inactive).
`COc1ccc(C(CNC(=O)c2ccc3c(c2)OCCO3)N(C)C)cc1` (stereo not given): in series [1], the EC50 was 0.237 µM (active).
In the case of `CCOC(=O)c1ccc(CNC(=O)C2CCCCC2C(=O)OCC(F)(F)F)o1` (stereo not given), the AC50 on Cytochrome P450 2D6 was 25.1 µM (inconclusive); at Cytochrome P450 2C9, “inconclusive”; at Cytochrome P450 2C19, 39.8 µM (inconclusive).
Regarding `CCN1CCN(c2ccc(S(=O)(=O)N3CCCCC3)cc2NC(=O)c2cccc(Cl)c2)CC1`, in [1], the concentration giving a half-maximal response (EC50) was 3.76 µM (active).
`O=C1NC(=O)C(=Cc2ccccc2Oc2ccc(F)cc2)C(=O)N1`: at Genome polyprotein, the IC50 is 37.5 µM (active).
Turning to `Cc1ccc(CNC(=O)CN2C(=O)COc3ccc(C)cc32)cc1`, the AC50 at Cytochrome P450 2D6 was 28.2 µM (inconclusive); on Cytochrome P450 2C9, “inconclusive”.
Turning to `O=C(NCc1cccnc1)C1CCCN(Cc2cnn(-c3ccccc3)c2-n2cccc2)C1` (stereo not given), in series [1], the EC50 was 1.68 µM (active).
On to `CC1=C(C(=O)Nc2ccccc2F)C(c2ccsc2)C2=C(O)CC(c3ccccc3)CC2=N1` (stereo not given), for which the values for the EC50 in series [5] and in series [6] were 3.32 µM (active) and 8.96 µM (active), respectively. For the same compound, the AC50 at Cytochrome P450 1A2 is 11.2 µM (inconclusive); at Cytochrome P450 2C9, “inconclusive”.
`CCCCn1nnnc1SCC(=O)c1cc(Cl)ccc1OC`: the AC50 on Cytochrome P450 2D6 is 22.4 µM (inconclusive); on Cytochrome P450 2C9, “inconclusive”; on Cytochrome P450 3A4 it was 14.1 µM (inconclusive).
